According to PMC6557900 (Nature Communications, 2019):
Read-outs that look alike come from different tables or passages of the source. Where a SMILES comes first, the peptide text is derived from it. [ ]: non-standard residue; d: D form. pY = N[C@@H](Cc1ccc(OP(=O)(O)O)cc1)C(=O)O

How the values were obtained:
[1] = target: T1, wild-type SBC (SOCS2-ElonginB-ElonginC) (Homo sapiens, UniProt O14508+Q15369+Q15370); test: SPR direct binding, wild-type SBC immobilized on the chip; conditions: mean ± s.e.m., four independent experiments
T1 construct: His6 (N, cleaved yes); made in house; host or cells: E. coli BL21(DE3)
Experimental: (§1) Biotinylated wild-type SBC and mutants were immobilized onto a chip surface and injected a series of seven concentrations (0.08, 0.25, 0.7, 2.2, 6.7, 20 and 60 μM) of peptide across the sensor surface for 60 s contact time and 120 sec dissociation time at 30 μl min^−1 flow rate. Data analysis was carried out using Biacore Evaluation Software (GE Healthcare). All data were double-referenced for reference surface and blank injection. The processed sensograms were fit to a steady-state affinity using a 1:1 binding model for KD estimation (raw data shown in Supplementary Figs. 10–15).

[2] = target: SBC (SOCS2-ElonginB-ElonginC) (Homo sapiens, UniProt O14508+Q15369+Q15370); test: 19F ligand-observed CPMG NMR displacement of spy molecule 3
Description: In the ^19F NMR displacement assay, the fluorine signal of a purposely-designed reporter ligand (also referred to as spy molecule) was monitored as a mean to quantify the extent of the competition between the tested peptides and the spy molecule. A Carr-Purcell-Meiboom-Gill (CPMG) pulse sequence was applied to estimate the spin–spin relaxation time (T2) of the spy molecule in the absence and presence of protein[43]–[45]. By adding competitor to disrupt the protein-spy interaction, the binding affinity of a competitor can be calculated based on the degree of displacement of the spy[46],[47].
All NMR experiments were conducted using AV-500 MHz Bruker spectrometer equipped with a 5 mm CPQCI 1H/19F/13C/15N/D Z-GRD cryoprobe) at 298 K. Spectra were recorded using 80 scans of a CPMG pulse sequence that attenuates broad resonances. […] The transmitter frequency was placed close to the resonance of O1 = −35451 Hz (−75.3 ppm). […] All NMR data were processed and analyzed using TopSpin (Bruker).
The dissociation constant of peptides (Ki) was calculated by adapting the method described by Wang et al.[47] Briefly, peptides’ Ki values were obtained from the equation below:1 Ki=([P0]-[PI]-[PL])([I0]-[PI])/[PI] where [I0] and [P0] are the total concentrations of the competitor (peptide inhibitor) and protein, respectively, used in the experiment, while [PI] and [PL] are the free concentrations of protein–peptide and protein–spy complexes, which are unknown.
To determine [PL] the following equation was used:2 IF-II/IF-IP=[PL]/[PL0] where IF is the measured integral of the fluorine peak of the spy molecule free in solution; IP is the integral of the same signal in the presence of protein; II is the integral of the same signal in the presence of protein and competing peptide; and [PL0] is the concentration of protein-spy complex in the absence of competitor, which was calculated using the following equation:3 [PL0]=[P0]+[L0]+KD-([P0]+[L0]+KD)^2-4[P0][L0]/2 where [L0] is the total concentrations of spy molecule used in the experiment, and KD is the dissociation constant of the protein-spy complex (determined by ITC). To determine [PI] the following equation was used: 4 [PL]=[P0]+[L0]+KD-[PI]-([P0]+[L0]+KD-[PI])^2-4([P0]-[PI])[L0]/2 where [PL] was determined as described above (Equation 2).

SBC with SOCS2 L106V = target: T2, SBC with SOCS2 L106V (Homo sapiens, UniProt O14508+Q15369+Q15370, L106V); test: SPR, SNP mutant SBC immobilized; type: binding; conditions: read-out: SPR dissociation constant KD
T2 construct: His6 (N, cleaved yes); made in house; host or cells: E. coli BL21(DE3)
Experimental: (§2) Protein expression was induced with isopropyl β-d-1-thiogalactopyranoside at 18 °C for 12 h. […] SBC was finally purified by size-exclusion chromatography on a Superdex 75 16/600 column (GE Healthcare) in 25 mM HEPES, pH 7.5, 250 mM NaCl and 10 mM DTT.
as §1

SBC with SOCS2 N94D = target: T3, SBC with SOCS2 N94D (Homo sapiens, UniProt O14508+Q15369+Q15370, N94D); test: SPR, SNP mutant SBC immobilized; type: binding; conditions: source data of Table 3, N94D
T3 construct: His6 (N, cleaved yes); made in house; host or cells: E. coli BL21(DE3)
Experimental: as §2, §1

SBC with SOCS2 R96L = target: T4, SBC with SOCS2 R96L (Homo sapiens, UniProt O14508+Q15369+Q15370, R96L); test: SPR, SNP mutant SBC immobilized; type: binding; conditions: for SPR KD: source data of Table 3, R96L
T4 construct: His6 (N, cleaved yes); made in house; host or cells: E. coli BL21(DE3)
Experimental: as §2, §1

SBC with SOCS2 R96Q = target: T5, SBC with SOCS2 R96Q (Homo sapiens, UniProt O14508+Q15369+Q15370, R96Q); test: SPR, SNP mutant SBC immobilized; type: binding; conditions: for SPR KD: source data of Table 3, R96Q
T5 construct: His6 (N, cleaved yes); made in house; host or cells: E. coli BL21(DE3)
Experimental: as §2, §1

[3] = target: T6, SOCS2-EloB-EloC ternary (SBC) complex (Homo sapiens, UniProt O14508+Q15369+Q15370); test: Isothermal titration calorimetry (ITC), ligand titrated into SBC; type: binding
T6 construct: His6 (N, cleaved yes); made in house; host or cells: E. coli BL21(DE3)
Experimental: The ITC titration consisted of 0.4 μl initial injection (discarded during data analysis) followed by 19 of 2 μl injections at 120 s interval between injections. […] Binding data was subtracted from a control titration where peptide was titrated into buffer, and fitted using a one-set-of-site binding model to obtain dissociation constants, binding enthalpy (ΔH), and stoichiometry (N) using MicroCal ITC-ORIGIN Analysis Software 7.0 (Malvern).

[4] = Table 2, biotinylated wild-type SBC immobilized, peptide 0.08-60 μM, 20 mM HEPES pH7.5, 150 mM NaCl, 1 mM TCEP, 0.005% Tween20, 10 °C, steady-state 1:1 model, read-out: SPR KD
[5] = read-out: SPR dissociation constant KD

T3 sequence (O14508 32-198 N94D): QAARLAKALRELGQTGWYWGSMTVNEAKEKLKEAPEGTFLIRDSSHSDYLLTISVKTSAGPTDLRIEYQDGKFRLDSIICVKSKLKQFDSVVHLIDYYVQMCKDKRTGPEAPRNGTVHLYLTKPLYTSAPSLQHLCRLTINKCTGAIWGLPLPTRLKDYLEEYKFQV
T3 sequence (Q15370 1-104 partner limits assumed): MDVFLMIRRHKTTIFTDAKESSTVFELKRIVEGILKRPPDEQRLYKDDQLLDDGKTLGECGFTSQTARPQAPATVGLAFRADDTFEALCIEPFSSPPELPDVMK
T3 sequence (Q15369 17-112 partner limits assumed): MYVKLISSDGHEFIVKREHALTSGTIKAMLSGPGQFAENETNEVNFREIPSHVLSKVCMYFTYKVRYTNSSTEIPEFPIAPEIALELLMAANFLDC
T5 sequence (O14508 32-198 R96Q): as the sequence (O14508 32-198 N94D) above, with D63N, R65Q counted along it
T5 sequence (Q15370 1-104 partner limits assumed): as the sequence (Q15370 1-104 partner limits assumed) above
T5 sequence (Q15369 17-112 partner limits assumed): as the sequence (Q15369 17-112 partner limits assumed) above
T4 sequence (O14508 32-198 R96L): as the sequence (O14508 32-198 N94D) above, with D63N, R65L counted along it
T4 sequence (Q15370 1-104 partner limits assumed): as the sequence (Q15370 1-104 partner limits assumed) above
T4 sequence (Q15369 17-112 partner limits assumed): as the sequence (Q15369 17-112 partner limits assumed) above
T1 sequence (O14508 32-198): as the sequence (O14508 32-198 N94D) above, with D63N counted along it
T1 sequence (Q15370 1-104 partner limits assumed): as the sequence (Q15370 1-104 partner limits assumed) above
T1 sequence (Q15369 17-112 partner limits assumed): as the sequence (Q15369 17-112 partner limits assumed) above
Sequence of SBC (SOCS2-ElonginB-ElonginC) (O14508 32-198): as the sequence (O14508 32-198 N94D) above, with D63N counted along it
Sequence of SBC (SOCS2-ElonginB-ElonginC) (Q15370 1-104 partner limits assumed): as the sequence (Q15370 1-104 partner limits assumed) above
Sequence of SBC (SOCS2-ElonginB-ElonginC) (Q15369 17-112 partner limits assumed): as the sequence (Q15369 17-112 partner limits assumed) above
T6 sequence (O14508 32-198): as the sequence (O14508 32-198 N94D) above, with D63N counted along it
T6 sequence (Q15370 1-104 partner limits assumed): as the sequence (Q15370 1-104 partner limits assumed) above
T6 sequence (Q15369 17-112 partner limits assumed): as the sequence (Q15369 17-112 partner limits assumed) above
T2 sequence (O14508 32-198 L106V): as the sequence (O14508 32-198 N94D) above, with D63N, L75V counted along it
T2 sequence (Q15370 1-104 partner limits assumed): as the sequence (Q15370 1-104 partner limits assumed) above
T2 sequence (Q15369 17-112 partner limits assumed): as the sequence (Q15369 17-112 partner limits assumed) above

Work on `CC[C@H](C)[C@H](NC(=O)[C@@H](NC(=O)[C@H](Cc1ccc(OP(=O)(O)O)cc1)NC(=O)[C@H](CCC(=O)O)NC(=O)[C@H](Cc1ccccc1)NC(=O)[C@H](CO)NC(=O)[C@H](C)N)[C@@H](C)O)C(=O)N[C@@H](CC(C)C)C(=O)N[C@@H](C)C(=O)N1CCC[C@H]1C(=O)N[C@@H](CO)C(N)=O` [ASFEpYTILAPS] (H-ASFE[pY]TILAPS-NH2) yielded a Kd [1, 4] of 18 ± 0.91 µM and a Ki [2] of 14.1 ± 1.74 µM.
`CC[C@H](C)[C@H](NC(=O)[C@H](CO)NC(=O)[C@@H](NC(=O)[C@H](Cc1ccc(OP(=O)(O)O)cc1)NC(=O)[C@H](CC(=O)O)NC(=O)[C@@H]1CCCN1C(=O)[C@H](CCCNC(=N)N)NC(=O)[C@@H]1CCCN1)[C@@H](C)O)C(=O)N[C@@H](Cc1c[nH]cn1)C(=O)N[C@H](C(=O)N[C@H](C(N)=O)C(C)C)[C@@H](C)CC` [V(−3)R] (H-PRPD[pY]TSIHIV-NH2) showed a Kd [1, 4] of 9 ± 1.05 µM.
In the case of `CC[C@H](C)[C@H](NC(=O)[C@H](CO)NC(=O)[C@@H](NC(=O)[C@H](Cc1ccc(OP(=O)(O)O)cc1)NC(=O)[C@H](CC(=O)O)NC(=O)[C@@H]1CCCN1C(=O)[C@H](C)NC(=O)[C@@H]1CCCN1)[C@@H](C)O)C(=O)N[C@@H](Cc1c[nH]cn1)C(=O)N[C@H](C(=O)N[C@H](C(N)=O)C(C)C)[C@@H](C)CC` [PAPDpYTSIHIV], the Ki [2] is reported as 3.4 ± 0.25 µM.
Molecule `CC[C@H](C)[C@H](NC(=O)[C@@H](NC(=O)[C@H](Cc1ccc(OP(=O)(O)O)cc1)NC(=O)[C@H](CCC(=O)O)NC(=O)[C@H](Cc1ccccc1)NC(=O)[C@H](CO)NC(=O)[C@H](C)N)[C@@H](C)O)C(=O)N[C@@H](CC(C)C)C(=O)N[C@@H](CC(=O)O)C(=O)N[C@@H](C)C(=O)N[C@@H](CO)C(N)=O` [ASFEpYTILDAS] (H-ASFE[pY]TILDAS-NH2) has a Kd [1, 4] of 8.9 ± 1.25 µM and a Ki [2] of 6.9 ± 1.39 µM.
With `CC[C@H](C)[C@H](NC(=O)[C@H](C)NC(=O)[C@@H](NC(=O)[C@H](CO)NC(=O)[C@@H](NC(=O)[C@H](Cc1ccc(OP(=O)(O)O)cc1)NC(=O)[C@H](CC(=O)O)NC(=O)[C@@H]1CCCN1C(=O)[C@@H](NC(=O)[C@@H]1CCCN1)C(C)C)[C@@H](C)O)[C@@H](C)CC)C(=O)N[C@H](C(N)=O)C(C)C` [PVPDpYTSIAIV] (H-PVPD[pY]TSIAIV-NH2) the Kd [1, 4] was 6.7 ± 0.78 µM.
`CC[C@H](C)[C@H](NC(=O)[C@H](CC(=O)O)NC(=O)[C@H](CO)NC(=O)[C@@H](NC(=O)[C@H](CCC(N)=O)NC(=O)[C@H](C)NC(=O)[C@H](Cc1ccc(OP(=O)(O)O)cc1)NC(=O)[C@H](Cc1ccccc1)NC(=O)[C@H](CC(=O)O)NC(=O)[C@@H](NC(=O)[C@@H](N)CC(N)=O)[C@@H](C)CC)C(C)C)C(N)=O` [GHR_pY487] (H-NIDF[pY]AQVSDI-NH2) was tested, and the Kd ([1]; Table 3, wild-type SOCS2 (SBC), 10 °C, read-out: SPR dissociation constant KD) was 5.1 ± 0.77 µM, the Kd (SBC with SOCS2 L106V) was 8.9 ± 0.7 µM and the “SPR KD” value (SBC with SOCS2 N94D; replicate 1) was “weak”. The “SPR KD” value (SBC with SOCS2 N94D; replicate 2) was “weak”, the “SPR KD” value (SBC with SOCS2 N94D; replicate 3) was “weak” and the “SPR KD” value (SBC with SOCS2 N94D; replicate 4) was “weak”. For the same molecule, the Kd (SBC with SOCS2 R96L; [5]) was > 60 µM, the “SPR KD” value (SBC with SOCS2 R96L; replicate 1) was “weak” and the “SPR KD” value (SBC with SOCS2 R96L; replicate 2) was “weak”. The “SPR KD” value (SBC with SOCS2 R96L; replicate 3) was “weak”, the “SPR KD” value (SBC with SOCS2 R96L; replicate 4) was “weak” and the Kd (SBC with SOCS2 R96Q; [5]) was > 60 µM. For the same molecule, the “SPR KD” value (SBC with SOCS2 R96Q; replicate 1) was “nb”, the “SPR KD” value (SBC with SOCS2 R96Q; replicate 2) was “nb” and the “SPR KD” value (SBC with SOCS2 R96Q; replicate 3) was “nb”. For the same molecule, the “SPR KD” value (SBC with SOCS2 R96Q; replicate 4) was “nb” and the Kd [3] was 2.3 µM.
Work on `CC[C@H](C)[C@H](NC(=O)[C@H](CO)NC(=O)[C@H](C)NC(=O)[C@H](Cc1ccc(OP(=O)(O)O)cc1)NC(=O)[C@H](CC(=O)O)NC(=O)[C@@H]1CCCN1C(=O)[C@@H](NC(=O)[C@@H]1CCCN1)C(C)C)C(=O)N[C@@H](Cc1c[nH]cn1)C(=O)N[C@H](C(=O)N[C@H](C(N)=O)C(C)C)[C@@H](C)CC` [PVPDpYASIHIV] (H-PVPD[pY]ASIHIV-NH2) yielded a Kd [1, 4] of 1 ± 0.09 µM and a Ki [2] of 0.5 ± 0.07 µM.
`CC[C@H](C)[C@H](NC(=O)[C@H](Cc1c[nH]cn1)NC(=O)[C@H](C)NC(=O)[C@H](CO)NC(=O)[C@@H](NC(=O)[C@H](Cc1ccc(OP(=O)(O)O)cc1)NC(=O)[C@H](CC(=O)O)NC(=O)[C@@H]1CCCN1C(=O)[C@@H](NC(=O)[C@@H]1CCCN1)C(C)C)[C@@H](C)O)C(=O)N[C@H](C(N)=O)C(C)C` [PVPDpYTSAHIV] (H-PVPD[pY]TSAHIV-NH2) showed a Ki [2] of 3.4 ± 0.66 µM.
For `CC[C@H](C)[C@H](NC(=O)[C@@H](NC(=O)[C@H](Cc1ccc(OP(=O)(O)O)cc1)NC(=O)[C@H](C)NC(=O)[C@H](Cc1ccccc1)NC(=O)[C@H](CO)NC(=O)[C@H](C)N)[C@@H](C)O)C(=O)N[C@@H](CC(C)C)C(=O)N[C@@H](CC(=O)O)C(=O)N1CCC[C@H]1C(=O)N[C@@H](CO)C(N)=O` [ASFApYTILDPS] (H-ASFA[pY]TILDPS-NH2), the Kd [1, 4] was 21.7 ± 1.49 µM.
`CC[C@H](C)[C@H](NC(=O)[C@H](CO)NC(=O)[C@@H](NC(=O)[C@H](Cc1ccc(OP(=O)(O)O)cc1)NC(=O)[C@H](CC(=O)O)NC(=O)[C@@H]1CCCN1C(=O)[C@@H](NC(=O)[C@H](C)N)C(C)C)[C@@H](C)O)C(=O)N[C@@H](Cc1c[nH]cn1)C(=O)N[C@H](C(=O)N[C@H](C(N)=O)C(C)C)[C@@H](C)CC` [AVPDpYTSIHIV] was tested, and the Ki [2] was 0.9 ± 0.17 µM.
Molecule `CC[C@H](C)[C@H](NC(=O)[C@H](CO)NC(=O)[C@@H](NC(=O)[C@H](Cc1ccc(OP(=O)(O)O)cc1)NC(=O)[C@H](CC(=O)O)NC(=O)[C@@H]1CCCN1C(=O)[C@H](Cc1ccc(O)cc1)NC(=O)[C@@H]1CCCN1)[C@@H](C)O)C(=O)N[C@@H](Cc1c[nH]cn1)C(=O)N[C@H](C(=O)N[C@H](C(N)=O)C(C)C)[C@@H](C)CC` [V(−3)Y] (H-PYPD[pY]TSIHIV-NH2) has a Kd [1, 4] of 3.3 ± 0.13 µM and a Ki [2] of 3.3 ± 0.24 µM.
For `CC[C@H](C)[C@H](NC(=O)[C@H](Cc1c[nH]cn1)NC(=O)[C@@H](NC(=O)[C@H](CO)NC(=O)[C@@H](NC(=O)[C@H](Cc1ccc(OP(=O)(O)O)cc1)NC(=O)[C@H](CC(=O)O)NC(=O)[C@@H]1CCCN1C(=O)[C@@H](NC(=O)[C@@H]1CCCN1)C(C)C)[C@@H](C)O)[C@@H](C)CC)C(=O)N[C@@H](C)C(N)=O` [PVPDpYTSIHIA], the Kd [1, 4] was 1.9 ± 0.09 µM.
With `CC(C)C[C@H](NC(=O)[C@H](C)NC(=O)[C@@H](NC(=O)[C@H](Cc1ccc(OP(=O)(O)O)cc1)NC(=O)[C@H](CCC(=O)O)NC(=O)[C@H](Cc1ccccc1)NC(=O)[C@H](CO)NC(=O)[C@H](C)N)[C@@H](C)O)C(=O)N[C@@H](CC(=O)O)C(=O)N1CCC[C@H]1C(=O)N[C@@H](CO)C(N)=O` [ASFEpYTALDPS] (H-ASFE[pY]TALDPS-NH2) the Ki [2] was 17.2 ± 0.89 µM.
